Results from US7312322B1, “Genetic sequences encoding steroid and juvenile hormone receptor polypeptides and insecticidal modalities therefor” (priority 1998, dated 2007).
Values joined by “and” are separate entries in the source; they are usually repeats but may differ in a detail not shown here. Equal values may be shown once.

Molecular target: T1, EcR polypeptide subunit of the D. melanogaster ecdysone receptor (Drosophila melanogaster, UniProt P34021)
T1 construct: expressed in transfected cells; host or cells: CHO cells
T1 sequence (P34021 1-878): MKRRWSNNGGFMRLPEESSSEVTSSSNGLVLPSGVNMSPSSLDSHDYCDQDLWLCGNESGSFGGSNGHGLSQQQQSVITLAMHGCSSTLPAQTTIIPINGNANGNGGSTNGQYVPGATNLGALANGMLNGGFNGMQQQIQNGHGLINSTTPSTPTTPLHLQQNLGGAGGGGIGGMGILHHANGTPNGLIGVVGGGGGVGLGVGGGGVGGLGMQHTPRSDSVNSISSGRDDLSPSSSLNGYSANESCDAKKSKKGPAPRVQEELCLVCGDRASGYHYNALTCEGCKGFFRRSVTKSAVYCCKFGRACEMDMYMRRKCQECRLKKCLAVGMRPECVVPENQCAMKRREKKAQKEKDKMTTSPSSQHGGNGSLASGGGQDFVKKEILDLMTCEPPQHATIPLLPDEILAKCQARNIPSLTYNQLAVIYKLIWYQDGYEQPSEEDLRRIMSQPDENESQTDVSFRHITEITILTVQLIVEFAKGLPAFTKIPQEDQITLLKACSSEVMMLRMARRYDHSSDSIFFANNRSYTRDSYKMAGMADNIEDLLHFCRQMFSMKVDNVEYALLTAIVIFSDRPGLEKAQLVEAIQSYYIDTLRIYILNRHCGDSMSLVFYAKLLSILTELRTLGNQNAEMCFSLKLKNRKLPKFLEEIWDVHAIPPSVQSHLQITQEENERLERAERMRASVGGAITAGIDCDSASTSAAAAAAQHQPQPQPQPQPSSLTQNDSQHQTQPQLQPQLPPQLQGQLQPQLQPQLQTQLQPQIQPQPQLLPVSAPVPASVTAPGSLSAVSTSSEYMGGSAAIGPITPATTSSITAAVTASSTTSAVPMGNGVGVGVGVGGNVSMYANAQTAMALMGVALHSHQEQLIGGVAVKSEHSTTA
Assay: CHO cell co-transfection CAT reporter assay, pSV40-EcR with p(EcRE)7-CAT
Format: cell-based
Conditions: for Fold-induction of expression: 30° C., PNA 20 μM, CHO cells
Method: Chinese hamster ovary (CHO) cells were maintained in 50% (v/v) Dubbecco's modified Eagle's medium (DMEM) and 50% (v/v) Hamm F12 nutrient mixture (GIBCO) supplemented with 10% (v/v) foetal bovine serum. Transfection was carried out by the DNA-calcium phosphate co-precipitation method (Ausubel et al, 1992). One day before transfection with the plasmids described in Examples 1 and/or 2, or other expression plasmids, CHO cells were plated out at 5-8×10^5 cells per 6 cm diameter culture dish in the above DMEM/F12 medium. Three hours before the addition of the DNA-calcium phosphate co-precipitate, the cells were washed with phosphate buffered saline (PBS; Sambrook et al., 1989) and cultured in fresh DMEM plus 10% (v/v) foetal bovine serum. The cells were incubated in the presence of the co-precipitate for eighteen hours before excess DNA was removed by washing with PBS. The cells were then cultured for another day in DMEM/F12 supplemented with 10% (v/v) foetal bovine serum with or without added ponasterone A (PNA), before harvesting. Cells were washed with PBS, harvested by mechanical scraping in 0.25 M Tris-HCl (pH 7.8), and disrupted by three freeze-thaw cycles.
All transfections included, in addition to expression and reporter plasmids, a β-galactosidase-expressing plasmid designated pPgK-LacZ (McBurney et al, 1991), which served as an internal control for the efficiency of transfection, and pUC18 DNA in an amount sufficient to produce 10 μg total DNA per culture dish.
The chloramphenicol acetyltransferase (CAT) and β-galactosidase activities encoded by the reporter genes present in the reporter plasmids were assayed as described in Sambrook et al, (1989).
To determine whether the D. melanogaster ecdysone receptor polypeptide is stable at physiological temperatures above about 30° C., CHO cells were transfected as described in Example 3, with the plasmid pSV40-EcR and the reporter plasmid p(EcRE)7-CAT in the presence of PNA, at 30° C. and 37° C.
Briefly, CHO cells were plated out at 37° C. sixteen to twenty hours before transfection. After washing away the DNA, the cells were cultured for two hours in fresh medium with or without hormone and the dishes divided into duplicate sets. One set was cultured for another day at 37° C. before harvesting for CAT and β-galactosidase assays. The other set was cultured for three days at 30° C. before assaying enzyme activities. Results indicated a reduction in the fold-induction of gene expression regulated by the D. melanogaster ecdysone receptor polypeptide at 37° C., compared to the fold-induction at 30° C., as shown in Table 1.

With `CC(C)CC[C@@H](O)[C@](C)(O)[C@H]1CC[C@@]2(O)C3=CC(=O)[C@@H]4C[C@@H](O)[C@@H](O)C[C@]4(C)[C@H]3CC[C@]12C` [PNA, ponasterone A] the Fold-induction of expression (pSV40-EcR 0.1 μg/dish) was 39X and 25X, the Fold-induction of expression (pSV40-EcR 0.5 μg/dish) was 26X and 33X and the Fold-induction of expression (pSV40-EcR 2.5 μg/dish) was 35X and 54X. For the same molecule, the “induction of CAT activity” value (CHO cells co-transfected with p(EcRE)7-CAT and pSV40-EcR, in the presence of PNA) was 50 units of activity.
